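Five concentrations, 48 hours, 96-well plates. TGI marks complete inhibition of growth.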

One assay concerns NCI/ADR-RES ovarian. In words: NCI anticancer screen, dose series, 48 h.
`Cc1c(C)n(-c2ccccc2)c2nc(S(C)(=O)=O)nc(S(C)(=O)=O)c12` showed a TGI of 59.9 µM.
For `CC(=O)O[C@H]1CC[C@@]2(C)C(=CC[C@@H]3[C@@H]2CC[C@]2(C)NC(=O)/C(=C\c4ccccc4)C[C@@H]32)C1`, the TGI turned out to be 63.1 µM.
On to `O=C(CCc1cc(O)ccc1O)OCCc1ccccc1`, for which the TGI is > 100 µM.
Regarding `O=C(N[C@@H](c1ccccc1)[C@@H](O)C(=O)OCc1ccc([N+](=O)[O-])cc1)c1ccccc1`, the TGI is > 100 µM.
On the same count and under the same terms, to `Cc1c(O)c(OC2OC(CO)C(O)C(O)C2O)cc2c1CC[C@@H]1C2(C)C(=O)C[C@]2(C)[C@@H]([C@@](C)(O)C(=O)CCC(C)(C)O)[C@H](O)C[C@@]12C` (stereo not given in full) belongs > 100 µM; to `O=c1oc2ccccc2cc1-c1cn2ccccc2n1`, 11.9 µM.
Consider `Cn1c(=O)oc2cc(C(O)CN3CCN(Cc4ccccn4)CC3)c(Cl)cc21` (stereo not given), for which the TGI is > 100 µM.
With `O=C(NCCCl)N(O)C(=O)Nc1ccccc1`, the TGI was > 100 µM.
Take `COC(=O)[C@H](Cc1c[nH]c2ccccc12)NC(=O)c1ccc(CNC(=O)/C(C)=C/c2ccccc2)cc1`: the TGI is > 100 µM.
Same read-out and setting: for `C/C(=N/NC(=S)Nc1ccc(Cl)cc1)c1cccc(/C(C)=N\NC(=S)Nc2ccc(Cl)cc2)n1` the value was 91.3 µM; for `COC(=O)C1(C(=O)OC)C/C(C)=C(/C)SCCCS1`, > 100 µM; for `CC1(C)CC(=O)C(C=NC(=O)c2ccncc2)=C(O)C1`, > 100 µM.
Same read-out and setting: for `O=C(O/C=C\OC1CCCC1(c1ccccc1)c1ccccc1)c1ccccc1` (stereo not given) the value was 8.99 µM.

Another assay deals with MOLT-4 leukemia. Nature of the assay: NCI anticancer screen, dose series, 48 h.
In turn, `Cc1c(C)n(-c2ccccc2)c2nc(S(C)(=O)=O)nc(S(C)(=O)=O)c12` yielded a TGI of 2.49 µM.
Take `CC(=O)O[C@H]1CC[C@@]2(C)C(=CC[C@@H]3[C@@H]2CC[C@]2(C)NC(=O)/C(=C\c4ccccc4)C[C@@H]32)C1`: the TGI is > 100 µM.
For `O=C(CCc1cc(O)ccc1O)OCCc1ccccc1`, the TGI is > 21 µM.
With `O=C(N[C@@H](c1ccccc1)[C@@H](O)C(=O)OCc1ccc([N+](=O)[O-])cc1)c1ccccc1`, the TGI is 76 µM.
Still for that read-out and setting: to `Cc1c(O)c(OC2OC(CO)C(O)C(O)C2O)cc2c1CC[C@@H]1C2(C)C(=O)C[C@]2(C)[C@@H]([C@@](C)(O)C(=O)CCC(C)(C)O)[C@H](O)C[C@@]12C` (stereo not given in full) belongs > 100 µM; to `O=c1oc2ccccc2cc1-c1cn2ccccc2n1`, > 80.8 µM; to `Cn1c(=O)oc2cc(C(O)CN3CCN(Cc4ccccn4)CC3)c(Cl)cc21` (stereo not given), > 100 µM.
For the compound `O=C(NCCCl)N(O)C(=O)Nc1ccccc1`, the TGI is > 100 µM.
With `COC(=O)[C@H](Cc1c[nH]c2ccccc12)NC(=O)c1ccc(CNC(=O)/C(C)=C/c2ccccc2)cc1`, the TGI is > 100 µM.
`C/C(=N/NC(=S)Nc1ccc(Cl)cc1)c1cccc(/C(C)=N\NC(=S)Nc2ccc(Cl)cc2)n1` came in with a TGI of 16.7 µM.
Consider `COC(=O)C1(C(=O)OC)C/C(C)=C(/C)SCCCS1`, for which the TGI was > 100 µM.
As to `CC1(C)CC(=O)C(C=NC(=O)c2ccncc2)=C(O)C1`, the TGI was > 100 µM.
With `O=C(O/C=C\OC1CCCC1(c1ccccc1)c1ccccc1)c1ccccc1` (stereo not given), the TGI is > 31 µM.

A further assay concerns SNB-75 CNS. Nature of the assay: NCI anticancer screen, dose series, 48 h.
Take `Cc1c(C)n(-c2ccccc2)c2nc(S(C)(=O)=O)nc(S(C)(=O)=O)c12`: the TGI was 34.5 µM.
For the compound `CC(=O)O[C@H]1CC[C@@]2(C)C(=CC[C@@H]3[C@@H]2CC[C@]2(C)NC(=O)/C(=C\c4ccccc4)C[C@@H]32)C1`, the TGI was 44.3 µM.
Turning to `O=C(CCc1cc(O)ccc1O)OCCc1ccccc1`, the TGI is > 100 µM.
`O=C(N[C@@H](c1ccccc1)[C@@H](O)C(=O)OCc1ccc([N+](=O)[O-])cc1)c1ccccc1`: the TGI was > 100 µM.
As for `Cc1c(O)c(OC2OC(CO)C(O)C(O)C2O)cc2c1CC[C@@H]1C2(C)C(=O)C[C@]2(C)[C@@H]([C@@](C)(O)C(=O)CCC(C)(C)O)[C@H](O)C[C@@]12C` (stereo not given in full), the TGI is > 100 µM.
On to `O=c1oc2ccccc2cc1-c1cn2ccccc2n1`, for which the TGI amounted to 6.37 µM.
Take `Cn1c(=O)oc2cc(C(O)CN3CCN(Cc4ccccn4)CC3)c(Cl)cc21` (stereo not given): the TGI was > 100 µM.
In the case of `O=C(NCCCl)N(O)C(=O)Nc1ccccc1`, the TGI was > 100 µM.
The same measure, in the same setting: to `COC(=O)[C@H](Cc1c[nH]c2ccccc12)NC(=O)c1ccc(CNC(=O)/C(C)=C/c2ccccc2)cc1` belongs 32.2 µM; to `C/C(=N/NC(=S)Nc1ccc(Cl)cc1)c1cccc(/C(C)=N\NC(=S)Nc2ccc(Cl)cc2)n1`, > 100 µM.
Still for that read-out and setting: for `COC(=O)C1(C(=O)OC)C/C(C)=C(/C)SCCCS1` the value was > 100 µM; for `CC1(C)CC(=O)C(C=NC(=O)c2ccncc2)=C(O)C1`, > 100 µM; for `O=C(O/C=C\OC1CCCC1(c1ccccc1)c1ccccc1)c1ccccc1` (stereo not given), 20.9 µM.

The subject of the next assay is PC-3 prostate. Nature of the assay: NCI anticancer screen, dose series, 48 h.
The compound `Cc1c(C)n(-c2ccccc2)c2nc(S(C)(=O)=O)nc(S(C)(=O)=O)c12` came in with a TGI of 10.2 µM.
Take `CC(=O)O[C@H]1CC[C@@]2(C)C(=CC[C@@H]3[C@@H]2CC[C@]2(C)NC(=O)/C(=C\c4ccccc4)C[C@@H]32)C1`: the TGI is 44.5 µM.
In turn, `O=C(CCc1cc(O)ccc1O)OCCc1ccccc1` returned a TGI of 18.5 µM.
The same measure, in the same setting: to `O=C(N[C@@H](c1ccccc1)[C@@H](O)C(=O)OCc1ccc([N+](=O)[O-])cc1)c1ccccc1` belongs > 100 µM; to `Cc1c(O)c(OC2OC(CO)C(O)C(O)C2O)cc2c1CC[C@@H]1C2(C)C(=O)C[C@]2(C)[C@@H]([C@@](C)(O)C(=O)CCC(C)(C)O)[C@H](O)C[C@@]12C` (stereo not given in full), > 100 µM.
Still for that read-out and setting: to `O=c1oc2ccccc2cc1-c1cn2ccccc2n1` belongs 12.8 µM; to `Cn1c(=O)oc2cc(C(O)CN3CCN(Cc4ccccn4)CC3)c(Cl)cc21` (stereo not given), > 100 µM.
Turning to `O=C(NCCCl)N(O)C(=O)Nc1ccccc1`, the TGI is > 100 µM.
As to `COC(=O)[C@H](Cc1c[nH]c2ccccc12)NC(=O)c1ccc(CNC(=O)/C(C)=C/c2ccccc2)cc1`, the TGI was > 100 µM.
Consider `C/C(=N/NC(=S)Nc1ccc(Cl)cc1)c1cccc(/C(C)=N\NC(=S)Nc2ccc(Cl)cc2)n1`, for which the TGI is > 100 µM.
For the compound `COC(=O)C1(C(=O)OC)C/C(C)=C(/C)SCCCS1`, the TGI was > 100 µM.
On to `CC1(C)CC(=O)C(C=NC(=O)c2ccncc2)=C(O)C1`, for which the TGI was > 100 µM.
Take `O=C(O/C=C\OC1CCCC1(c1ccccc1)c1ccccc1)c1ccccc1` (stereo not given): the TGI amounted to 13.6 µM.

The next assay relates to CAKI-1 renal. Nature of the assay: NCI anticancer screen, dose series, 48 h.
In turn, `Cc1c(C)n(-c2ccccc2)c2nc(S(C)(=O)=O)nc(S(C)(=O)=O)c12` displayed a TGI of 1.55 µM.
Take `CC(=O)O[C@H]1CC[C@@]2(C)C(=CC[C@@H]3[C@@H]2CC[C@]2(C)NC(=O)/C(=C\c4ccccc4)C[C@@H]32)C1`: the TGI was > 100 µM.
Still for that read-out and setting: for `O=C(CCc1cc(O)ccc1O)OCCc1ccccc1` the value was 27.2 µM.
Regarding `O=C(N[C@@H](c1ccccc1)[C@@H](O)C(=O)OCc1ccc([N+](=O)[O-])cc1)c1ccccc1`, the TGI is > 100 µM.
Same read-out and setting: for `Cc1c(O)c(OC2OC(CO)C(O)C(O)C2O)cc2c1CC[C@@H]1C2(C)C(=O)C[C@]2(C)[C@@H]([C@@](C)(O)C(=O)CCC(C)(C)O)[C@H](O)C[C@@]12C` (stereo not given in full) the value was > 100 µM.
With `O=c1oc2ccccc2cc1-c1cn2ccccc2n1`, the TGI was 20.5 µM.
Regarding `Cn1c(=O)oc2cc(C(O)CN3CCN(Cc4ccccn4)CC3)c(Cl)cc21` (stereo not given), the TGI is > 100 µM.
On the same count and under the same terms, to `O=C(NCCCl)N(O)C(=O)Nc1ccccc1` belongs > 100 µM; to `COC(=O)[C@H](Cc1c[nH]c2ccccc12)NC(=O)c1ccc(CNC(=O)/C(C)=C/c2ccccc2)cc1`, > 100 µM.
Compound `C/C(=N/NC(=S)Nc1ccc(Cl)cc1)c1cccc(/C(C)=N\NC(=S)Nc2ccc(Cl)cc2)n1` had a TGI of 39.4 µM.
For the compound `COC(=O)C1(C(=O)OC)C/C(C)=C(/C)SCCCS1`, the TGI was > 100 µM.
On to `CC1(C)CC(=O)C(C=NC(=O)c2ccncc2)=C(O)C1`, for which the TGI was > 100 µM.
On the same count and under the same terms, for `O=C(O/C=C\OC1CCCC1(c1ccccc1)c1ccccc1)c1ccccc1` (stereo not given) the value was > 63.6 µM.
